Where a name gives a salt, the structure may show the parent alone.
Assays:
[1] = target: T1, SHMT2 (mitochondrial serine hydroxymethyltransferase) (Homo sapiens, UniProt P34897); assay: spectrophotometric quinonoid-intermediate assay ([…] nm) with purified recombinant enzyme, mixed-type inhibition fit; supported by DSF; assay type: biochemical
T1 sequence (P34897 30-504): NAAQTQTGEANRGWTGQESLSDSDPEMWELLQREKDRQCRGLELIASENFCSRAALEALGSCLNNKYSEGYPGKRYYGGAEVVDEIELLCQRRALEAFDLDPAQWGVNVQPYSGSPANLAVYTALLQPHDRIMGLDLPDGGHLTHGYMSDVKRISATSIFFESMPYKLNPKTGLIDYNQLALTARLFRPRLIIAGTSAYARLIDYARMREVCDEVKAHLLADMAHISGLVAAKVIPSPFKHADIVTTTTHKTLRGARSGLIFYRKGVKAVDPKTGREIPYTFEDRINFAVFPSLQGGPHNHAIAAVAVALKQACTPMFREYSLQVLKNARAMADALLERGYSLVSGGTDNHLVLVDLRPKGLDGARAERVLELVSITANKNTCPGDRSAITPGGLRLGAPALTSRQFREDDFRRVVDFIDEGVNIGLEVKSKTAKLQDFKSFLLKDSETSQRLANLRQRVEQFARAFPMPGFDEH

[2] = target: T2, SHMT1 (cytosolic serine hydroxymethyltransferase) (Homo sapiens, UniProt P34896); assay: spectrophotometric quinonoid-intermediate assay ([…] nm) with purified recombinant enzyme; assay type: biochemical
T2 sequence (P34896 2-483): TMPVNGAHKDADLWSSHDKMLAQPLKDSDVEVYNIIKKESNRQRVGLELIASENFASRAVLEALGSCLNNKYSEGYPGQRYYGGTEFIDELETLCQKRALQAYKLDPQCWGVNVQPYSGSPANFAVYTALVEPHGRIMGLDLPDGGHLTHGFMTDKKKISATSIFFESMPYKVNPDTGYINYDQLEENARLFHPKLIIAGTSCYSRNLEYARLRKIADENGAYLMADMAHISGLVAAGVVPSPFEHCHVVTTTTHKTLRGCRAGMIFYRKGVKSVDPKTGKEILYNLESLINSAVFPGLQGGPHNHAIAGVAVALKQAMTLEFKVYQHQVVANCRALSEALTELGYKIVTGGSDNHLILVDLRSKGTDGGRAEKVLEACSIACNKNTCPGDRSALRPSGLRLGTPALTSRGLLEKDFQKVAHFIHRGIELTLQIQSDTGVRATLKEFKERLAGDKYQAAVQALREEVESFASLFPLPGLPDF

[3] = target: T1, SHMT2 (mitochondrial serine hydroxymethyltransferase); assay: DSF titration of apo-enzyme with PLP (Tm vs concentration); assay type: binding; parameters: apo-SHMT2

Row | SMILES | Ki [1] [mM] | Ki [2] [mM] | Kd [3] [mM]
1 | CN(C)C(=N)N=C(N)N [MET, 1,1-dimethylbiguanide hydrochloride] | 13.3 ± 2.1 | 100 ± 33 | 
2 | Cc1ncc(COP(=O)(O)O)c(C=O)c1O [PLP, pyridoxal-5′-phosphate] |  |  | 0.0003
